Laboratory results reported in patent US20090215758A1, “Use of 2,5-Disubstituted Thiazol-4-One Derivatives in Drugs” (Gruenenthal GmbH, priority 2005, published 2009).
Structures can show the parent of a compound that is named as a salt.

Assays:
VR1 (human) = molecular target: T1, VR1 (human) (Homo sapiens, UniProt Q8NER1); experiment: Functional study on vanilloid receptor (VR1), FLIPR Ca2+ assay in CHO K1 cells stably transfected with the VR1 gene; assay type: cell-based; conditions: for inhibition at 10 µM / activation at 10 µM: CHO-K1, test compound 10 μM; for inhibition at 10 µM / VR1 (human) (% inhibition compared to 10 μM CP): 5 min incubation, then 100 nM capsaicin, compared to 10 μM CP; for activation at 10 µM / VR1 (human) (% stimulation compared to 10 μM CP): Ca2+ signal relative to 10 μM capsaicin (CP); for activation at 10 µM: read-out: VR1 (human) (% stimulation compared to 10 μM CP); for EC50: unit inferred; for VR1 (human) (% inhibition compared to 10 μM CP) / VR1 (human) (% stimulation compared to 10 μM CP): test compound 10 μM
T1 construct: expressed in transfected cells; host or cells: CHO K1 cells (ECACC), stably transfected

[1] = molecular target: T2, vanilloid receptor 1 (VR1/TRPV1) of the rat species (Rattus norvegicus, UniProt O35433); experiment: Functional study on vanilloid receptor 1, FLIPR Ca2+ assay in rat dorsal root ganglia cells; assay type: cell-based; conditions: for inhibition at 10 µM / activation at 10 µM / VR1 (rat) (% inhibition compared to 10 μM CP) / VR1 (rat) (% stimulation compared to 10 μM CP): test compound 10 μM; for inhibition at 10 µM / VR1 (rat) (% inhibition compared to 10 μM CP): 5 min incubation, then 100 nM capsaicin, relative to maximum inhibition with 10 μM capsaicin; for inhibition at 10 µM: read-out: VR1 (rat) (% inhibition compared to 10 μM CP); for activation at 10 µM / VR1 (rat) (% stimulation compared to 10 μM CP): Ca2+ signal relative to 10 μM capsaicin (CP); for activation at 10 µM: read-out: VR1 (rat) (% stimulation compared to 10 μM CP); for EC50: unit inferred
T2 construct: The spinal column is removed from beheaded rats; from tissue; host or cells: primary cells from rat dorsal root ganglia (DRGs)
T2 sequence (O35433 whole entry): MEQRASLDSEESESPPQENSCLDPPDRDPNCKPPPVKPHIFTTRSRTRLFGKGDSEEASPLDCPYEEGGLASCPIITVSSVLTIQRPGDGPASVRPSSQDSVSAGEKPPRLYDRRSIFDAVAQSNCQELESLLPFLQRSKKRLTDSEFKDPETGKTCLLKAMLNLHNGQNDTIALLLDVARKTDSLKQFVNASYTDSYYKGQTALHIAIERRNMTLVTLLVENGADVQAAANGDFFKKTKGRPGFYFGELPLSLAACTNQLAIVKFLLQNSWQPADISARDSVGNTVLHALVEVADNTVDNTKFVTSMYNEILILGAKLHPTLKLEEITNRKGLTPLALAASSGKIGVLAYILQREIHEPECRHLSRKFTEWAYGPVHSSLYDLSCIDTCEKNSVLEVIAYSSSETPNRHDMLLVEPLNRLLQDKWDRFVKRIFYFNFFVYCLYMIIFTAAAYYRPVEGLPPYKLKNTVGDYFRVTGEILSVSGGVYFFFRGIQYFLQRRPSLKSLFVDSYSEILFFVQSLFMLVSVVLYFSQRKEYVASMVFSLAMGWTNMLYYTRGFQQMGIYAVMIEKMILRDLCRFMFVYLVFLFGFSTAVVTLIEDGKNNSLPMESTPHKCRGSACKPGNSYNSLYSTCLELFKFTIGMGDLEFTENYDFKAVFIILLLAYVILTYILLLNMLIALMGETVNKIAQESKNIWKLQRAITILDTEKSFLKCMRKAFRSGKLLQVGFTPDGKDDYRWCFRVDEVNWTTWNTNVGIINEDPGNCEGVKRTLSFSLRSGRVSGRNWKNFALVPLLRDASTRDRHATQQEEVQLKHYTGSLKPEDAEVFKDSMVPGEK

T1 sequence (Q8NER1 whole entry): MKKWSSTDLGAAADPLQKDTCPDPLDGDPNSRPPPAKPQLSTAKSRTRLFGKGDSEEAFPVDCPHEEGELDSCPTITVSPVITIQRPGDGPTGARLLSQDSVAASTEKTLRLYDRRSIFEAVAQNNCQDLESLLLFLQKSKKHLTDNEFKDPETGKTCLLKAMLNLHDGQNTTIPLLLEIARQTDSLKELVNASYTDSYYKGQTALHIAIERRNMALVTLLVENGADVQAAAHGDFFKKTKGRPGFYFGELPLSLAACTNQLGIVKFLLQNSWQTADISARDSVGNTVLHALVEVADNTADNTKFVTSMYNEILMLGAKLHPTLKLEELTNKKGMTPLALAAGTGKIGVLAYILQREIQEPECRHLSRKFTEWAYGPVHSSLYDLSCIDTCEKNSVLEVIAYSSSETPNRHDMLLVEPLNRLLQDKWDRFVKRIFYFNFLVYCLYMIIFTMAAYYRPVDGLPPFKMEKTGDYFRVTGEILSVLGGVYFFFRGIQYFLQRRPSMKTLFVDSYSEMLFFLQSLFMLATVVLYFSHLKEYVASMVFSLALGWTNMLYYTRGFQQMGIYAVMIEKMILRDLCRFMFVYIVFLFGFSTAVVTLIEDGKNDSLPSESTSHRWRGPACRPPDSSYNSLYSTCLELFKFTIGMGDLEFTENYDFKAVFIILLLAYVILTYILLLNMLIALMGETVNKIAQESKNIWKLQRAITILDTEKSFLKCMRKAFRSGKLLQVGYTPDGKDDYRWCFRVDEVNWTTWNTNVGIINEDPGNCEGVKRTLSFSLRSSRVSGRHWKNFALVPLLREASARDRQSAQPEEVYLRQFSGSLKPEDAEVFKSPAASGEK

Row | SMILES | inhibition at 10 µM (VR1 (human)) [%] | activation at 10 µM (VR1 (human)) [%] | inhibition at 10 µM [1] [%] | activation at 10 µM [1] [%] | EC50 (VR1 (human)) [µM] | EC50 [1] [µM] | VR1 (human) (% inhibition compared to 10 μM CP) (VR1 (human)) [%] | VR1 (human) (% stimulation compared to 10 μM CP) (VR1 (human)) [%] | VR1 (rat) (% inhibition compared to 10 μM CP) [1] [%] | VR1 (rat) (% stimulation compared to 10 μM CP) [1] [%]
1 | O=C1N=C(N2CCOCC2)SC1=Cc1ccccn1 [Example 210, 2-morpholin-4-yl-5-pyridin-2-ylmethylenethiazol-4-one] | 3.03 | 1.83 | 23 | 2.22 | – | – | – | – | – | –
2 | CCN(CC)C1=NC(=O)C(=Cc2cccc(C(F)(F)F)c2)S1 [Example 214, 2-diethylamino-5-(3-trifluoromethylbenzylidene)thiazol-4-one] | 56.7 | 6.08 | 50.1 | 13.7 | – | – | – | – | – | –
3 | Cc1ccc(C=C2SC(N3CCCC3)=NC2=O)cc1 [Example 215, 5-(4-methylbenzylidene)-2-pyrrolidin-1-ylthiazol-4-one] | 49.8 | 3.64 | 4.47 | 2.14 | – | – | – | – | – | –
4 | COCCNC1=NC(=O)C(=Cc2ccc(C(C)(C)C)cc2)S1 [Example 216, 5-(4-tert-butylbenzylidene)-2-(2-methoxyethylamino)thiazol-4-one hydrobromide] | 51.1 | 2.08 | 22.1 | 1.24 | 5.4 | 1.5 | – | – | – | –
5 | O=C1N=C(N2CCOCC2)SC1=Cc1ccc(OS(=O)(=O)c2ccccc2)cc1 [Example 234, benzenesulfonic acid 4-(2-morpholin-4-yl-4-oxo-4H-thiazol-5-ylidenemethyl)phenyl ester] | 27.8 | 46.1 | 98.1 | 57.9 | – | – | – | – | – | –

The next lines start with the values.

Row | inhibition at 10 µM (VR1 (human)) [%] | activation at 10 µM (VR1 (human)) [%] | inhibition at 10 µM [1] [%] | activation at 10 µM [1] [%] | EC50 (VR1 (human)) [µM] | EC50 [1] [µM] | VR1 (human) (% inhibition compared to 10 μM CP) (VR1 (human)) [%] | VR1 (human) (% stimulation compared to 10 μM CP) (VR1 (human)) [%] | VR1 (rat) (% inhibition compared to 10 μM CP) [1] [%] | VR1 (rat) (% stimulation compared to 10 μM CP) [1] [%] | SMILES
6 | – | – | – | – | – | – | 12.88 | 17.91 | 78.83 | 55.76 | Cc1ccc(C=C2SC(N3CCOCC3)=NC2=O)cc1 [Example 218, 5-(4-methylbenzylidene)-2-morpholin-4-ylthiazol-4-one]
7 | – | – | – | – | – | – | 79.67 | 41.92 | 98.64 | 102.46 | CC(C)(C)c1ccc(C=C2SC(N3CCOCC3)=NC2=O)cc1 [Example 222, 5-(4-tert-butylbenzylidene)-2-morpholin-4-ylthiazol-4-one]
8 | 57.7 | 70.5 | 9.3 | 102 | – | – | – | – | – | – | CCN(CC)c1ccc(C=C2SC(N3CCOCC3)=NC2=O)cc1 [Example 223, 5-(4-diethylaminobenzylidene)-2-morpholin-4-ylthiazol-4-one]
9 | 0.61 | 12.2 | 4.84 | 16 | 26.5 | 14.3 | – | – | – | – | COc1ccc(C=C2SC(N3CCOCC3)=NC2=O)cc1 [Example 228, 5-(4-methoxybenzylidene)-2-morpholin-4-ylthiazol-4-one]
10 | 43.8 | 29.2 | 96.2 | 80.4 | – | – | – | – | – | – | O=C1N=C(N2CCOCC2)SC1=Cc1ccc(Br)cc1 [Example 232, 5-(4-bromobenzylidene)-2-morpholin-4-ylthiazol-4-one]
11 | 44.5 | 73.9 | 13.7 | 123 | – | – | – | – | – | – | CN(C)c1ccc(C=C2SC(N3CCOCC3)=NC2=O)cc1 [Example 235, 5-(4-dimethylaminobenzylidene)-2-morpholin-4-ylthiazol-4-one]
